Data from patent US11840521B2, “Modulators of Mas-related G-protein receptor X4 and related products and methods” (Escient Pharmaceuticals, Inc., priority 2019, dated 2023).
Read-outs that look alike come from different tables or passages of the source.

Target: MRGPRX4 (Homo sapiens, UniProt Q96LA9)
Test: MRGPR X4 antagonist activity, IP-One Gq HTRF assay in stably transfected HEK cells (versus agonist bilirubin, deoxycholic acid, conjugated bilirubin, urobilin, obeticholic acid or BAR502)
Type: cell-based
Parameters: expressed in transfected cells; host or cells: HEK cells, stably transfected
Experimental: HEK cells stably transfected to express human MRGPR X4 were maintained in an incubator at 37° C. with 5% CO2 and grown in DMEM media with 10% fetal bovine serum (FBS) and 1% each of sodium pyruvate, Glutamax, penicillin/streptomycin, and Geneticin. HEK cells stably transfected to express mouse MRGPR A1 were maintained in the same incubator and grown in DMEM media with 10% FBS, 1% each of sodium pyruvate, Glutamax, penicillin/streptomycin, Geneticin, and 2.2 mg/mL Hygromycin.
Cells were plated in a 384-well assay plate at 20,000 cells per well in 12 μL of Opti-MEM and kept in an incubator overnight. On the day of the assay, compounds solubilized at 10 mM in DMSO were added as a 10-point curve (10 uM final top concentration with 1:3 serial dilutions) using a Tecan D300E digital dispenser. […] Final concentrations of DMSO were kept consistent across the plate. Plates were incubated in the dark for 1 h at 37° C. and then for 30 minutes at room temperature. IP-1 standards and HTRF detection reagents were added according to the IP-One—Gq Kit purchased from Cisbio (part number 62IPAPEJ) and incubated in the dark for 1 h at room temperature. The plate was read on a Molecular Devices SpectraMax iD5 plate reader. The HTRF ratio was calculated from the raw data and graphed using GraphPad Prism to calculate an IC50 value for each compound.

[1] = versus 10 μM Bilirubin agonist, HEK cells expressing human MRGPR X4, read-out: MRGPR4 Antagonist Activity

MRGPRX4, sequence (Q96LA9 whole entry): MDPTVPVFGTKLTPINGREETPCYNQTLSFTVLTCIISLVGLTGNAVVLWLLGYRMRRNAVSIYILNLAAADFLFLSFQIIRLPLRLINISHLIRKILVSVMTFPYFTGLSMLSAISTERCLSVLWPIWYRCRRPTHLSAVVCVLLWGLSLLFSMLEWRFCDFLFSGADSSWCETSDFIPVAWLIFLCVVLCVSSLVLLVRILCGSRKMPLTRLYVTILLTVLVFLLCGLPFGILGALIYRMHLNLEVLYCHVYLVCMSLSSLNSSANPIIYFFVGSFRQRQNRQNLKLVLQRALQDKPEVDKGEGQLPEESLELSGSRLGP

IC50 [1] [µM]	Structure (SMILES)	other results
0.5 to 1	O=C(NC1CCCC(O)C1)c1cccc(COc2ccc(C(F)(F)F)cc2Cl)c1 (stereo not shown) [Compound 52-19]	–
< 0.1	O=C(O)c1cccc(COc2ccc3ccccc3c2Cl)c1F [Compound 4-21]	–
< 0.1	N#Cc1cc(COc2ccc(OC(F)(F)F)cc2Cl)cc(C(=O)O)c1 [Compound 32-4]	–
0.1 to 0.5	Cc1cc(-n2cccc2)ccc1OCc1cccc(C(=O)O)c1F [Compound 4-27]	–
< 0.1	N#Cc1cc(COc2ccc(C(F)(F)F)cc2Cl)cc(C(=O)O)c1 [Compound 32-1, 3-((2-chloro-4-(trifluoromethyl)phenoxy)methyl)-5-cyanobenzoic acid]	IC50 (versus 10 μM Bilirubin agonist, read-out: IC50 (Bilirubin agonist)): 0.006 µM; IC50 (versus 20 μM deoxycholic acid, read-out: IC50 (Deoxycholic Acid agonist)): 0.01 µM; IC50 (versus 20 μM obeticholic acid, read-out: IC50 (Obeticholic Acid Agonist)): 0.003 µM; IC50 (versus 50 μM urobilin, read-out: IC50 (Urobilin Agonist)): 0.008 µM; IC50 (versus 100 μM conjugated bilirubin, read-out: IC50 (Conjugated Bilirubin Agonist)): 0.007 µM
1 to 2.5	O=C(O)c1cccc(COc2cccc(-c3ccccc3)c2)c1 [Compound 3-3]	–
1 to 2.5	FC(F)(F)c1ccc(OCc2cccc(-c3cn[nH]n3)c2)c(Cl)c1 [Compound 48-1, 4-(3-((2-chloro-4-(trifluoromethyl)phenoxy)methyl)phenyl)-2H-1,2,3-triazole]	–
1 to 2.5	O=C(O)c1ccc(F)c(COc2ccc(Cl)cc2Cl)c1 [Compound 4-2]	–
0.5 to 1	O=C(c1cccc(COc2ccc(C(F)(F)F)cc2Cl)c1)N1CCOC1 [Compound 52-25]	–
< 0.1	Cc1cc(C(F)(F)F)ccc1OCc1cccc(-c2nnn[nH]2)c1 [Compound 17-11]	–
0.5 to 1	O=C(N[C@H]1CC[C@H](O)CC1)c1cccc(COc2ccc(C(F)(F)F)cc2Cl)c1 [Compound 52-15]	–
0.1 to 0.5	O=C(NCc1ccccc1)c1cccc(COc2ccc(C(F)(F)F)cc2Cl)c1 [Compound 52-1, N-benzyl-3-((2-chloro-4-(trifluoromethyl)phenoxy)methyl)benzamide]	–
< 0.1	Cc1cc(COc2ccc(OC(F)(F)F)cc2Cl)cc(C(=O)O)c1 [Compound 4-14]	–
0.5 to 1	O=C(O)c1cc(COc2ccc(C(F)(F)F)cc2Cl)cc(-c2ccccc2)c1 [Compound 8-4]	–
< 0.1	O=C(O)c1cccc(COc2ccc(OC(F)(F)F)cc2Cl)c1F [Compound 4-13]	–
< 0.1	CCc1cc(COc2ccc3ccccc3c2)nc(C(=O)O)c1 [Compound 42-1, 4-ethyl-6-((naphthalen-2-yloxy)methyl)picolinic acid]	–
1 to 2.5	Cc1ccc(OCc2cccc(C(=O)O)c2)c(C)c1 [Compound 3-7]	–
< 0.1	Cc1cc(COc2ccc3ccccc3c2)cc(C(=O)O)c1 [Compound 4-12]	–
0.5 to 1	O=C(O)c1cccc(COc2ccc(N3CCCC3)cc2Cl)c1F [Compound 4-24]	–
1 to 2.5	O=C(c1ccc(COc2ccc(C(F)(F)F)cc2Cl)cc1)N1CCC2(COC2)C1 [Compound 52-4]	–

IC50 [1] [µM]	Structure (SMILES)	other results
0.1 to 0.5	O=C(NCCS(=O)(=O)O)c1ccc(COc2ccc(C(F)(F)F)cc2Cl)cc1 [Compound 52-5]	–
> 2.5	O=C(O)c1cccc(COc2ccccc2C(F)F)c1 [Compound 33-1, 3-((2-(difluoromethyl)phenoxy)methyl)benzoic acid]	–
0.1 to 0.5	O=C(O)c1cc(COc2ccc(C(F)(F)F)cc2Cl)cc(C(F)(F)F)c1 [Compound 4-20]	–
0.5 to 1	Cc1ccc(OCc2cccc(C(=O)O)c2)c(Cl)c1 [Compound 3-2, 3-((2-chloro-4-methylphenoxy)methyl)benzoic acid]	–
1 to 2.5	O=C(O)c1cccc(COc2cc(Cl)cc(Cl)c2)c1 [Compound 3-9]	–
1 to 2.5	OCc1cccc(COc2ccc(Cl)cc2Cl)c1 [Compound 14-1, (3-((2,4-dichlorophenoxy)methyl)phenyl)methanol]	–
1 to 2.5	CCc1c(COc2ccc(C(F)(F)F)cc2Cl)cccc1C(=O)O [Compound 37-1, 3-((2-chloro-4-(trifluoromethyl)phenoxy)methyl)-2-ethylbenzoic acid]	–
0.5 to 1	C#Cc1cc(C(F)(F)F)ccc1OCc1cccc(C(=O)O)c1F [Compound 36-1, 3-((2-ethynyl-4-(trifluoromethyl)phenoxy)methyl)-2-fluorobenzoic acid]	–
0.1 to 0.5	CNC(=O)c1cccc(COc2ccc(C(F)(F)F)cc2Cl)c1 [Compound 52-26]	–
> 2.5	Cc1ccc(COc2ccc(Cl)cc2Cl)cc1C(=O)O [Compound 8-1, 5-((2,4-dichlorophenoxy)methyl)-2-methylbenzoic acid]	–
0.1 to 0.5	O=C(O)c1cc(COc2ccc(C(F)(F)F)c(Cl)c2)cc(C(F)(F)F)c1 [Compound 4-16]	–
< 0.1	O=C(O)c1cccc(CNc2ccc(C(F)(F)F)cc2Cl)c1 [Compound 12-4]	–
0.1 to 0.5	O=C(N[C@@H](Cc1ccc(O)cc1)C(=O)O)c1cccc(COc2ccc(C(F)(F)F)cc2Cl)c1 [Compound 54-7]	–
> 2.5	O=C(O)c1cccc(NC(=O)c2cccc(COc3ccc(C(F)(F)F)cc3Cl)c2)c1 [Compound 54-11]	–
0.1 to 0.5	O=C(O)c1cc(COc2ccc(Cl)cc2Cl)ccc1F [Compound 4-3]	–
0.1 to 0.5	O=C(NC1CCC1)c1cccc(COc2ccc(C(F)(F)F)cc2Cl)c1 [Compound 52-24]	–
< 0.1	Cc1cc(COc2ccc3ccccc3c2)nc(C(=O)O)c1 [Compound 41-1, 4-methyl-6-((naphthalen-2-yloxy)methyl)picolinic acid]	–
0.1 to 0.5	N#Cc1cc(C#Cc2ccc(C(F)(F)F)cc2Cl)cc(C(=O)O)c1 [Compound 60-1, 3-((2-chloro-4-(trifluoromethyl)phenyl)ethynyl)-5-cyanobenzoic acid]	–
0.1 to 0.5	CC(C)(NC(=O)c1cccc(COc2ccc(C(F)(F)F)cc2Cl)c1)C(=O)O [Compound 54-3]	–

More lines, now with the values behind:

Structure (SMILES)	IC50 [1] [µM]	other results
O=C(O)c1cccc(COc2ccc(Cl)c(Cl)c2F)c1 [Compound 1-149]	< 0.1	–
Cc1cc(OCc2cccc(C(=O)O)c2)ccc1C(F)(F)F [Compound 1-138]	> 2.5	–
O=C(O)c1cccc(COc2ccc3c(c2)CCC3=O)c1 [Compound 1-74]	> 2.5	–
O=C(O)c1cccc(COc2ccc(C3CC3)cc2Cl)c1 [Compound 1-122]	0.1 to 0.5	–
O=C(O)c1cccc(COc2ccc(C(F)(F)F)cc2Br)c1 [Compound 1-120]	< 0.1	–
CC(C)(C)c1ccccc1OCc1cccc(C(=O)O)c1 [Compound 1-144]	> 2.5	–
Cc1cc(OCc2cccc(C(=O)O)c2)ccc1C#N [Compound 1-145]	0.1 to 0.5	–
O=C(O)c1cccc(COc2ccc(OC(F)(F)F)c(Cl)c2)n1 [Compound 1-129]	< 0.1	–
O=C(O)c1cc(Cl)cc(COc2ccc(C(F)(F)F)cc2Cl)c1 [Compound 1-82]	< 0.1	–
Cc1ccc(OCc2cccc(C(=O)O)c2)c(F)c1 [Compound 1-77]	1 to 2.5	–
O=C(O)c1cccc(COc2cccc3c2OC(F)(F)O3)c1 [Compound 1-48]	> 2.5	–
O=C(O)c1cccc(COc2cccc(C(F)(F)F)c2)c1 [Compound 1-140]	1 to 2.5	–
CC(=O)c1ccc(OCc2cccc(C(=O)O)c2)c(Cl)c1 [Compound 1-126]	1 to 2.5	–
COc1ccc(OCc2cccc(C(=O)O)c2)c2ccccc12 [Compound 1-147]	1 to 2.5	–
O=C(O)c1cccc(COc2ccc(OC(F)F)cc2)c1 [Compound 1-135]	0.1 to 0.5	–
O=C(O)c1cccc(COc2cccc(Cl)c2F)c1 [Compound 1-75]	1 to 2.5	–

Structure (SMILES)	IC50 [1] [µM]	other results
O=C(O)c1cccc(COc2ccc(-n3cccc3)cc2)c1 [Compound 1-80]	0.1 to 0.5	–
N#Cc1ccc(OCc2cccc(C(=O)O)c2)cc1 [Compound 1-34]	> 2.5	–
N#Cc1cc(OCc2cccc(C(=O)O)c2)ccc1Cl [Compound 1-70]	1 to 2.5	–
Cc1ccc(C(C)(C)C)c(OCc2cccc(C(=O)O)c2)c1 [Compound 1-88]	1 to 2.5	–
O=C(O)c1cc(COc2ccc(C(F)(F)F)cc2Cl)ccc1Cl [Compound 1-83]	0.1 to 0.5	–
O=C(O)c1cccc(COc2ccc(C3CC3)cc2)c1 [Compound 1-46]	1 to 2.5	–
Cc1cc(C(C)(C)C)ccc1OCc1cccc(C(=O)O)c1 [Compound 1-108]	1 to 2.5	–
O=C(O)c1cc(COc2ccc(Cl)cc2Cl)ccc1Cl [Compound 1-44]	0.5 to 1	–
COC(=O)c1ccc(COc2ccc(Cl)cc2Cl)s1 [Compound 1-14]	1 to 2.5	–
Cc1cc(Cl)ccc1OCc1cccc(C(=O)O)n1 [Compound 1-57]	0.1 to 0.5	–
O=C(O)c1cccc(COc2ccc3ccccc3c2)n1 [Compound 1-30]	< 0.1	–
O=C(O)c1cccc(COc2ccc(C(F)(F)F)nc2)c1 [Compound 1-102]	1 to 2.5	–
N#Cc1c(Cl)cccc1OCc1cccc(C(=O)O)c1 [Compound 1-76]	0.1 to 0.5	–
O=C(O)c1cc(Br)cc(COc2ccc(C(F)(F)F)cc2Cl)c1 [Compound 2-3]	< 0.1	–
COc1cccc(OCc2cccc(C(=O)O)c2)c1 [Compound 1-39]	0.1 to 0.5	–
Cc1c(Cl)cccc1OCc1cccc(C(=O)O)c1 [Compound 1-95]	0.1 to 0.5	–
